# Results: the NIST ThermoML archive (doi:10.1021/je050403k)
# “And” between values parts separate entries of the source, which are not always exact repeats. Equal entries are not always repeated. ± gives the expanded uncertainty stated by the source.
# Conditions: Liquid
compound,measurement,setting,value
CC(C)C [2-methylpropane],vapor or sublimation pressure,364.5 K,1685.6 ± 12 kPa
C/C=C/C [(E)-2-butene],vapor or sublimation pressure,364.5 K,1269.2 ± 8.9 kPa
C/C=C\C [(Z)-2-butene],vapor or sublimation pressure,365.43 K,1213 ± 8.5 kPa
CC(C)=O [acetone],vapor or sublimation pressure,364.51 K,297.1 ± 2.1 kPa and 294.3 ± 2.1 kPa and 296.4 ± 2.1 kPa
same,vapor or sublimation pressure,364.52 K,296.8 ± 2.1 kPa
same,vapor or sublimation pressure,365.43 K,302.56 ± 2.1 kPa
CCCC [butane],vapor or sublimation pressure,364.51 K,1284.5 ± 8.9 kPa
C=CCC [1-butene],vapor or sublimation pressure,364.51 K,1510.5 ± 10 kPa
C=C(C)C [2-methylpropene],vapor or sublimation pressure,364.51 K,1546.2 ± 11 kPa
